# Reference: patent publication US6503943B1, “Platinum complex, its preparation and therapeutic application” (priority 1998, dated 2003)
# “And” between values parts separate entries of the source, which are not always exact repeats. Equal values may be shown once.
# Experiments:
# leucaemia L1210 [1] = test: Antitumor effect at animals with leucaemia L1210, single administration (Example 4); assay type: in vivo, mice DBA2
# leucaemia L1210 [2] = test: Antitumor effect at animals with leucaemia L1210, intermitent administration 3x (Example 5); assay type: in vivo, mice DBA2; settings: for Survival (in % of control) / Survival time, Geom. mean: 1st, 5th and 9th day
# leucaemia L1210 [3] = test: Antitumor effect at animals with leucaemia L1210, continual versus intermitent regimen (Example 6); assay type: in vivo, mice DBA2
# leucaemia L1210 [4] = test: Antitumor effect at animals with leucaemia L1210, continual regimen (Example 7); assay type: in vivo, mice DBA2; settings: for Survival (in % of control) / Survival time, Geom. mean: 1th-9th day
# Gardner lymphosarcoma = test: Antitumor effect at animals with solid form of Gardner lymphosarcoma (Example 8); assay type: in vivo, mice C3H; settings: for Tumor mass (%) of control / Tumor mass, Arithm. mean: 5th day, tumors weighed 14th day
# [5] = test system: mammal adenocarcinoma MC2111; test: Antitumor effect at animals with solid form of mammal adenocarcinoma MC2111 (Example 9); assay type: in vivo, mice DBA1; settings: for Tumor mass (%) of control / Tumor mass, Arithm. mean: 5th-13 day, tumor size 14th day, mass from regression
# [6] = test system: ascitic form of Ehrlich tumor (ATE); test: Antitumor effect at animals with ascitic form of Ehrlich tumor (ATE) (Example 10); assay type: in vivo, mice ICR; settings: for Survival (in % of control) / Survival time, Geom. mean / Tumor mass (%) of control / Tumor mass, Arithm. mean: 1st-9th day; for Tumor mass (%) of control / Tumor mass, Arithm. mean: dissection 10th day
# [7] = test system: ascitic form of Ehrlich tumor (ATE); test: Antitumor effect at animals with ascitic form of Ehrlich tumor (ATE) (Example 11);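 as to all read-outs here: half of each dose group killed on day 10, tumor mass taken as animal mass lost on ascites aspiration, ascitocrit by microhematocrit centrifuge, rest followed daily for survival versus reference group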; settings: for Survival (in % of control) / Survival time, Geom. mean / Total ascitocrit (%) of control / Total ascitocrit (mass of cell fraction of a tumor), Arithm. mean / Tumor mass (%) of control / Tumor mass, Arithm. mean: 1th-9th day; for Total ascitocrit (%) of control / Total ascitocrit (mass of cell fraction of a tumor), Arithm. mean / Tumor mass (%) of control / Tumor mass, Arithm. mean: dissection 10th day
# Description: After termination of application, one half of animals in each dosage group was destroyed at 10th day after inoculation in ether narcosis, the ascits were sucked out after laparotomy and the mass of a tumor at each of the animals was determined from the difference of mass before and after sucking out the ascit. Ascitocrit in ascitic liquor of single animals was determined on microhematocrit centrifuge in heparinized capillary tubes of 75 mm length. The value of “total ascitocrit”corresponding to a mass of cells in ascitic liquor has been determined from percentage of ascitocrit and mass of the tumor. Remaining animals were left for monitoring the survival time. In these animals, the survival time was monitored on daily basis. The dependence of the survival time value on the applied dose was evaluated in comparison with the reference group.
# The single estimated time points as biological responses were evaluated by a test of equivalence of two mean values (Student's t-test). Geometric mean was calculated from single values of survival time, arithmetic means were calculated from single values of tumor mass and total ascitocrit. Difference between mean values was evaluated by a test of equivalence of two mean values (Student's t-test) under presumption of normal probability distribution of mass values as well as of total ascitocrit values and of logarithmic/normal distribution of temporal values, all under presumption of possible unknown disseminations. Those diferences in mean values, whose values of a test criterium exceeded the critical value at the 5% and 1% significance level were evaluated as statistically significant and highly statistically significant, respectively.
# The optimum dosage has been calculated from values of survival time according to the proportional risk model of Cox (Carter et al., 1982). Parameters of Weinbull distribution and logarithmic transformation of introductory data were used for estimation of a basic and modified survival function from experimental data.
# [8] = 9 mg/kg/day as printed, middle dose group between 36 and 9, p.o. 3x, 1,5,9th day
# [9] = 9 mg/kg/day p.o. 3x, 1,5,9th day (lowest dose group)
# [10] = 12 mg/kg/day p.o. 9x, 1-9th day
# [11] = 36 mg/kg/day p.o. 3x, 1,5,9th day
smiles,measurement,setting,value
"CC(=O)[O][Pt]([NH2])([Cl])([Cl])([NH]C1CCCCC1)[O]C(C)=O [LA-2, af-bis(acetato)-b-ammin-cd-dichloro-e-(cyclohexylamine)platinum (IV) complex]","Effect at the single oral dose of 10 mg/kg for IP-L 1210, in words",leucaemia L1210 [1]; 10 mg/kg (30 mg/m^2) single oral dose,no effect
same,"Antitumor effect (survival time versus control), in words","leucaemia L1210 [1]; mouse, in vivo",No effect has been proven
same,Survival (in % of control),"leucaemia L1210 [1]; mouse, in vivo",63% and 85% and 81% and 94% and 99%
same,"Survival time, Geom. mean","leucaemia L1210 [1]; mouse, in vivo",8.0 days and 10.7 days and 10.3 days and 11.9 days and 12.5 days
same,Survival (in % of control),leucaemia L1210 [2]; 2 mg/kg/day p.o. 3x,>129%
same,"Survival time, Geom. mean",leucaemia L1210 [2]; 2 mg/kg/day p.o. 3x,20.2 days
same,Survival (in % of control),leucaemia L1210 [2]; 4 mg/kg/day p.o. 3x,118%
same,"Survival time, Geom. mean",leucaemia L1210 [2]; 4 mg/kg/day p.o. 3x,18.5 days
same,Survival (in % of control),leucaemia L1210 [2]; 8 mg/kg/day p.o. 3x,<148%
same,"Survival time, Geom. mean",leucaemia L1210 [2]; 8 mg/kg/day p.o. 3x,23.2 days
same,Optimum dose as calculated according to Carter,leucaemia L1210 [2]; intermitent oral administration 3x,10.96 mg/kg/day p.o.×3
same,Survival (in % of control),"leucaemia L1210 [3]; 3 mg/kg/day p.o. 9x, 1-9th day",162%
same,"Survival time, Geom. mean","leucaemia L1210 [3]; 3 mg/kg/day p.o. 9x, 1-9th day",18.7 days
same,Survival (in % of control),"leucaemia L1210 [3]; 6 mg/kg/day p.o. 9x, 1-9th day",173%
same,"Survival time, Geom. mean","leucaemia L1210 [3]; 6 mg/kg/day p.o. 9x, 1-9th day",20.0 days
same,Survival (in % of control),leucaemia L1210 [3]; [8],160%
same,"Survival time, Geom. mean",leucaemia L1210 [3]; [8],18.6 days
same,Survival (in % of control),leucaemia L1210 [3]; [9],99%
same,"Survival time, Geom. mean",leucaemia L1210 [3]; [9],11.4 days
same,Survival (in % of control),leucaemia L1210 [3]; [10],99%
same,"Survival time, Geom. mean",leucaemia L1210 [3]; [10],11.5 days
same,Survival (in % of control),leucaemia L1210 [3]; [11],130%
same,"Survival time, Geom. mean",leucaemia L1210 [3]; [11],15.1 days
same,"Evaluation of antitumor effect (survival time versus control), in words","leucaemia L1210 [3]; LA-12 6 mg/kg p.o.×9, Platidiam 8 and 4 mg/kg s.c.×1, LA-2 any of the dosage groups",antitumor uneffective
same,Survival (in % of control),leucaemia L1210 [4]; 3 mg/kg/day p.o. 9x,214%
same,"Survival time, Geom. mean",leucaemia L1210 [4]; 3 mg/kg/day p.o. 9x,48.1 days
same,Increase of survival time value in comparison with the control group,leucaemia L1210 [4]; 3 mg/kg/day p.o.×9,114%
same,Survival (in % of control),leucaemia L1210 [4]; 6 mg/kg/day p.o. 9x,137%
same,"Survival time, Geom. mean",leucaemia L1210 [4]; 6 mg/kg/day p.o. 9x,30.8 days
same,Survival (in % of control),leucaemia L1210 [4]; 12 mg/kg/day p.o. 9x,108%
same,"Survival time, Geom. mean",leucaemia L1210 [4]; 12 mg/kg/day p.o. 9x,24.4 days
same,Tumor mass (%) of control,Gardner lymphosarcoma; 2 mg/kg p.o. 1x,90%
same,"Tumor mass, Arithm. mean",Gardner lymphosarcoma; 2 mg/kg p.o. 1x,5.61 g
same,Tumor mass (%) of control,Gardner lymphosarcoma; 8 mg/kg p.o. 1x,99%
same,"Tumor mass, Arithm. mean",Gardner lymphosarcoma; 8 mg/kg p.o. 1x,6.19 g
same,Tumor mass (%) of control,Gardner lymphosarcoma; 32 mg/kg p.o. 1x,103%
same,"Tumor mass, Arithm. mean",Gardner lymphosarcoma; 32 mg/kg p.o. 1x,6.44 g
same,"Effect on average mass of a tumor, in words","Gardner lymphosarcoma; single p.o. 32, 8 and 2 mg/kg",No effect has been observed
same,Tumor mass (%) of control,[5]; 3 mg/kg/day p.o. 9x,86%
same,"Tumor mass, Arithm. mean",[5]; 3 mg/kg/day p.o. 9x,4.00 g
same,Tumor mass (%) of control,[5]; 6 mg/kg/day p.o. 9x,83%
same,"Tumor mass, Arithm. mean",[5]; 6 mg/kg/day p.o. 9x,3.86 g
same,Tumor mass (%) of control,[5]; 12 mg/kg/day p.o. 9x,77%
same,"Tumor mass, Arithm. mean",[5]; 12 mg/kg/day p.o. 9x,3.59 g
same,Survival (in % of control),"[5]; mouse, in vivo",100% and 115% and 113%
same,"Survival time, Geom. mean","[5]; mouse, in vivo",21.7 days and 24.9 days and 24.5 days
same,"Evaluation of antitumor effect, in words","[5]; p.o.×9 12, 6, 3 mg/kg/day, Platidiam 8 and 4 mg/kg s.c. once",No effect was observed
same,Survival (in % of control),[6]; 3 mg/kg/day p.o. 9x,161%
same,"Survival time, Geom. mean",[6]; 3 mg/kg/day p.o. 9x,18.4 days
same,Tumor mass (%) of control,[6]; 3 mg/kg/day p.o. 9x,119%
same,"Tumor mass, Arithm. mean",[6]; 3 mg/kg/day p.o. 9x,3.17 g
same,Survival (in % of control),[6]; 6 mg/kg/day p.o. 9x,156%
same,"Survival time, Geom. mean",[6]; 6 mg/kg/day p.o. 9x,17.9 days
same,Tumor mass (%) of control,[6]; 6 mg/kg/day p.o. 9x,80%
same,"Tumor mass, Arithm. mean",[6]; 6 mg/kg/day p.o. 9x,2.13 g
same,Survival (in % of control),[6]; 12 mg/kg/day p.o. 9x,110%
same,"Survival time, Geom. mean",[6]; 12 mg/kg/day p.o. 9x,12.6 days
same,Tumor mass (%) of control,[6]; 12 mg/kg/day p.o. 9x,79%
same,"Tumor mass, Arithm. mean",[6]; 12 mg/kg/day p.o. 9x,2.10 g
same,"Significance of mean survival time increase in comparison with untreated control (p≦0.01), in words",[6]; Tab. 7-2,do not
same,Survival (in % of control),[7]; 3 mg/kg/day p.o. 9x,114%
same,"Survival time, Geom. mean",[7]; 3 mg/kg/day p.o. 9x,10.1 days
same,Total ascitocrit (%) of control,[7]; 3 mg/kg/day p.o. 9x,108%
same,"Total ascitocrit (mass of cell fraction of a tumor), Arithm. mean",[7]; 3 mg/kg/day p.o. 9x,0.74 g
same,Tumor mass (%) of control,[7]; 3 mg/kg/day p.o. 9x,90%
same,"Tumor mass, Arithm. mean",[7]; 3 mg/kg/day p.o. 9x,3.53 g
same,"Survival time, Geom. mean",[7]; 6 mg/kg/day p.o. 9x,13.2 days
same,Total ascitocrit (%) of control,[7]; 6 mg/kg/day p.o. 9x,100%
same,"Total ascitocrit (mass of cell fraction of a tumor), Arithm. mean",[7]; 6 mg/kg/day p.o. 9x,0.69 g
same,Tumor mass (%) of control,[7]; 6 mg/kg/day p.o. 9x,59%
same,"Tumor mass, Arithm. mean",[7]; 6 mg/kg/day p.o. 9x,2.32 g
same,Survival (in % of control),[7]; 12 mg/kg/day p.o. 9x,111%
same,"Survival time, Geom. mean",[7]; 12 mg/kg/day p.o. 9x,9.9 days
same,Total ascitocrit (%) of control,[7]; 12 mg/kg/day p.o. 9x,95%
same,"Total ascitocrit (mass of cell fraction of a tumor), Arithm. mean",[7]; 12 mg/kg/day p.o. 9x,0.65 g
same,Tumor mass (%) of control,[7]; 12 mg/kg/day p.o. 9x,70%
same,"Tumor mass, Arithm. mean",[7]; 12 mg/kg/day p.o. 9x,2.74 g
same,"Evaluation of antitumor effect (survival time versus control), in words","[7]; p.o.×9, Platidiam 8 and 4 mg/kg s.c.×1, Tab. 8.1",didnot increase the survival time statistically significant
